Measured values from patent US11976083B2, “Inhibitors of peptidylarginine deiminases” (Gilead Sciences, Inc., priority 2020, dated 2024).
pIC50: −log10 of the molar value.

Biological target: T1, human PAD4 (Homo sapiens, UniProt Q9UM07)
T1 construct: human PAD4 (NM_012387), A2-P663, was PCR amplified; His-SUMO (N, cleaved yes); made in house; host or cells: E. coli BL21(DE3)
Assay: In vitro PAD4 BAEE biochemical assay
Details: BAEE substrate 3 mM, 5 nM PAD4, 2 mM calcium chloride; geometric mean of multiple experiments
Outline: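 Assay was run at 25 °C using 3 mM BAEE and 5 nM human PAD4 after a 30 min compound preincubation; ammonia produced over 2 h was quantified by OPA-derived fluorescence. Full inhibition was defined by 50 µM BB-Cl-Amidine, and IC50 came from variable-slope nonlinear regression.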

T1 sequence (Q9UM07 2-663): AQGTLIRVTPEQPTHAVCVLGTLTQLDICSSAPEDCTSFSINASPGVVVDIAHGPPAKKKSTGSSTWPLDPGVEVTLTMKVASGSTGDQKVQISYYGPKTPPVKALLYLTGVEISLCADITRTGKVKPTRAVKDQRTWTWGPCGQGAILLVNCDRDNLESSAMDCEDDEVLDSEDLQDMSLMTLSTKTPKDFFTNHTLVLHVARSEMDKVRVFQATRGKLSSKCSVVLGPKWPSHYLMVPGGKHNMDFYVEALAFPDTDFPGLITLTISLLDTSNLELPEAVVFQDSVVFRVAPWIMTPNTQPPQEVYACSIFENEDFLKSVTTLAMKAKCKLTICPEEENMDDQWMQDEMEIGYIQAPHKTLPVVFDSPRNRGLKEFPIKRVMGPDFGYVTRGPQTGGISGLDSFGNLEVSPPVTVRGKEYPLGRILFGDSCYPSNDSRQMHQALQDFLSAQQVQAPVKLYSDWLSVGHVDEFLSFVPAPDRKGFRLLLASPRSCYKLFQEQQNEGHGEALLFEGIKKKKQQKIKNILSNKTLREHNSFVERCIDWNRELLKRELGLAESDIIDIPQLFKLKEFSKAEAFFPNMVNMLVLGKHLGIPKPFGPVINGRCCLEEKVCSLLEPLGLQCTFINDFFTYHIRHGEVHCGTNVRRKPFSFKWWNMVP

| pIC50 | Compound |
| --- | --- |
| 7.00 | COc1cc(C(=O)N2C[C@H](N)[C@@H]3CC[C@H]2C3)cc2nc(-c3cc4ccc5nc4n3CCCCCOC3(CC3)C(=O)N[C@@H]5C)n(C3CC3)c12 [Example 904, (11~{R})-17-[5-[(1~{S),4~{R}, 5~{R})-4-amino-2-azabicyclo [3.2.1]octane-2-carbonyl]-1-cyclopropyl-7-methoxy-benzimidazol-2-yl]-11-methyl-spiro[7-oxa-1,10,19-triazatricyclo[10.5.2.0^{15,18}]nonadeca-12(19), 13,15(18),16-tetraene-8,1′-cyclopropane]-9-one] |
| 7.14 | COc1cc(C(=O)N2C[C@H](N)[C@@H]3CC[C@H]2C3)cc2nc(-c3cc4ccc5nc4n3CCCCCOC(C)(C)C(=O)N[C@@H]5C)n(C3CC3)c12 [Example 905, (11~{R})-17-[5-[(1~{S},4~{R}, 5~{R})-4-amino-2-azabicyclo [3.2.1]octane-2-carbonyl]-1-cyclopropyl-7-methoxy-benzimidazol-2-yl]-8,8,11-trimethyl-7-oxa-1,10,19-triazatricyclo[10.5.2.0^{15,18}] nonadeca-12(19), 13,15(18),16-tetraen-9-one] |
| 7.26 | COc1cc(C(=O)N2C[C@H](N)[C@@H]3CC[C@H]2C3)cc2nc(-c3cc4ccc5nc4n3CCCCCc3c(ccc(F)c3F)C(=O)N[C@@H]5C)n(C)c12 [Example 906, (2~{R})-17-[5-[(1~{S},4~{R}, 5~{R})-4-amino-2-azabicyclo [3.2.1]octane-2-carbonyl]-7-methoxy-1-methyl-benzimidazol-2-yl]-8,9-difluoro-2-methyl-3,16,22-triazatetracyclo [14.5.2.0^{5,10).0^{19,23}] tricosa-1(22),5(10),6,8,17, 19(23),20-heptaen-4-one] |
| 7.09 | COc1cc(C(=O)N2C[C@H](N)[C@@H]3CC[C@H]2C3)cc2nc(-c3cc4ccc5nc4n3CCCCCCCN(C(C)=O)[C@@H]5C)n(C)c12 [Example 907] |
| 6.82 | COc1cc(C(=O)N2C[C@H](N)[C@@H]3CC[C@H]2C3)cc2nc(-c3cc4ccc5nc4n3CCCCCCCCN(C(C)=O)[C@@H]5C)n(C)c12 [Example 908] |
| 7.28 | COc1cc(C(=O)N2C[C@H](N)[C@@H]3CC[C@H]2C3)cc2nc(-c3cc4ccc5nc4n3CCCCCOC(C)(C)C(=O)N[C@@H]5C)n(C)c12 [Example 909, (11~{R})-17-[5-[(1~{S},4~{R), 5~{R})-4-amino-2-azabicyclo [3.2.1]octane-2-carbonyl]-7-methoxy-1-methyl-benzimidazol-2-yl]-8,8,11-trimethyl-7-oxa-1,10,19-triazatricyclo[10.5.2.0^{15,18}] nonadeca-12(19), 13,15(18),16-tetraen-9-one] |
| 7.31 | COc1cc(C(=O)N2C[C@H](N)[C@@H]3CC[C@H]2C3)cc2nc(-c3cc4ccc5nc4n3CCCCCOC3(CC3)C(=O)N[C@@H]5C)n(C)c12 [Example 910, (11~{R})-17-[5-[(1~{S},4~ {R},5~{R})-4-amino-2-azabicyclo [3.2.1]octane-2-carbonyl]-7-methoxy-1-methyl-benzimidazol-2-yl]-11-methyl-spiro[7-oxa-1,10,19-triazatricyclo[10.5.2.0^{15,18}]nonadeca-12(19), 13,15(18),16-tetraene-8,1′-cyclopropane]-9-one] |
| 7.21 | C[C@H]1NC(=O)c2c(C3CC3)cc(Cl)nc2CCCCCn2c(-c3nc4cc(C(=O)N5C[C@H](N)[C@@H]6CC[C@H]5C6)cc(F)c4n3C3CC3)cc3ccc1nc32 [Example 911, (2~{R})-17-[5-[(1~{S},4~{R}, 5~{R})-4-amino-2-azabicyclo[3.2.1]octane-2-carbonyl]-1-cyclopropyl-7-fluoro-benzimidazol-2-yl]-8-chloro-6-cyclopropyl-2-methyl-3,9,16,22-tetrazatetracyclo[14.5.2.0^ {5,10}.0^{19,23}]tricosa-1(22),5(10),6,8,17,19(23),20-heptaen-4-one] |
